From patent publication US5905073A, “Use of 2-hydroxy-5-phenylazobenzoic acid derivatives as colon cancer chemopreventative and chemotherapeutic agents” (priority 1996, dated 1999)
“Also recorded” adds a separate entry of the source. Read-outs that look alike come from different tables or passages of the source.

Columns and labels:
[1] = test system: human colon cancer cells; test: Colon cancer cell proliferation in vitro, comparative statements; type: cell-based
Experimental: (§1) Cells were grown in Dulbeccos Modified Eagle medium supplemented with 10% calf serum in an atmosphere of 5% CO2 at 37° C. For growth experiments, cells were seeded into 24-well tissue culture dishes (2 cm^2 /well) at a density of 20,000 cells/well and allowed to attach for 12 hours. The growth medium was then changed and replaced with fresh media containing the test drugs.
(§2) The test drugs were dissolved in tissue culture media at the desired concentration and added to individual wells. To determine the number of cells per well, media was removed and the cells washed with phosphate buffered saline solution. The cells were then incubated 15 minutes with trypsin-EDTA solution until detached. The detached cells were then removed from the wells and counted using a Coulter Counter (Model ZBI).
(§3) The cell numbers shown in Table I are the average of triplicate culture wells.
(§4) For dose response studies a sensitive dye binding assay was adapted which allows simultaneous assay of multiple agents and doses in 96-well plates. Cells were plated and allowed to adhere for 24 hours prior to addition of the study drug. Cell densities were then determined 4 days later by fixation of the wells and staining with Sulforhodamine B dye. Optical density of the stained cultures was then determined using a 96-well plate reader at 495 nm (Skehan et al. (1990) J. Natl. Cancer Inst. 82:1107-1112).
Two such oxidation products, gentisic acid (Dull et al. (1987) Biochem. Pharmacol. 36:2467-2472) and 5-nitro-salicylate (Laffafian et al. (1991) Biochem. Pharmacol. 42:1869-1874) have been elucidated.

[2] = test system: LS174T cells; test: Proliferation of LS174T colon cancer cells, Coulter Counter cell count; type: cell-based, human; conditions: for Cell No. on Day 10: average of triplicate wells; for activity at 10000 µM: 240 h
Experimental: as §1, §2, §3

[3] = test system: HT-29 cells; test: Proliferation of HT-29 colon cancer cells, Coulter Counter cell count; type: cell-based, human; conditions: for Cell No. on Day 10: average of triplicate wells; for activity at 10000 µM: read-out: % of Control Cells
Experimental: as §1, §2, §3

[4] = cited from earlier work; for absorption: oral balsalazide
[5] = test system: LS174T cells; test: Dose response growth inhibition of LS174T cells, Sulforhodamine B dye binding assay; type: cell-based, human; conditions: for IC50: Homo sapiens
Experimental: as §4, with “dye.” for “dye. Optical density of the stained cultures was then determined using a 96-well plate reader at 495 nm (Skehan et al. (1990) J. Natl. Cancer Inst. 82:1107-1112).”

[6] = test system: colon cancer cells; test: 5-ASA growth inhibitory activity following hypochlorite exposure; type: cell-based; conditions: for inhibition at 10000 µM: 5-ASA 10 mM, read-out: Increase in Growth Inhibition
Text: Indeed certain of its therapeutic benefits in the treatment of intestinal inflammation are thought to be derived from its ability to scavenge free radicals including O2^- released from inflammatory cells and thereby reduced oxidative damage.

[7] = test system: rectal mucosal reactive oxygen metabolite production; conditions: rectal biopsies, ulcerative colitis patients; cited from earlier work
[8] = test system: HT-29 cells; test: Dose response growth inhibition of HT-29 cells, Sulforhodamine B dye binding assay; type: cell-based, human; conditions: for IC50: Homo sapiens
Experimental: as §4, with “dye.” for “dye. Optical density of the stained cultures was then determined using a 96-well plate reader at 495 nm (Skehan et al. (1990) J. Natl. Cancer Inst. 82:1107-1112).”

[9] = test system: HRT-18 cells; test: Growth inhibition of HRT-18 colon cancer cells; type: cell-based; conditions: Homo sapiens; HRT-18, Table IV; read-out: IC50 for inhibition of human colon cancer cell proliferation
Experimental: as §4, with “dye.” for “dye. Optical density of the stained cultures was then determined using a 96-well plate reader at 495 nm (Skehan et al. (1990) J. Natl. Cancer Inst. 82:1107-1112).”

[10] = test system: LS174T cells; test: LS174T growth with freshly dissolved or pre-dissolved 5-ASA; type: cell-based; conditions: Homo sapiens, 96 h
Experimental: Cells were grown an additional 4 days prior to quantitation.

[11] = test system: LoVo cells; test: Growth inhibition of LoVo colon cancer cells; type: cell-based; conditions: Homo sapiens, Table IV, read-out: IC50 for inhibition of human colon cancer cell proliferation
Experimental: as §4, with “dye.” for “dye. Optical density of the stained cultures was then determined using a 96-well plate reader at 495 nm (Skehan et al. (1990) J. Natl. Cancer Inst. 82:1107-1112).”

[12] = test system: nitrosamine formation; conditions: from arginine-dependent nitric oxide; cited from earlier work
[13] = test system: colon cancer incidence; conditions: cited from earlier work
[14] = in vivo; cited from earlier work
[15] = test system: polyps; conditions: cited from earlier work; for effect on polyps: sulindac: nine familial polyposis patients, randomized placebo-controlled double-blind crossover
[16] = test system: colon carcinogenesis; conditions: cited from earlier work
[17] = Homo sapiens, 10 mM, Day 10, read-out: % of Control Cells
[18] = Homo sapiens, 240 h, HT-29, 10 mM, Day 10
[19] = Table IV, read-out: IC50 for inhibition of human colon cancer cell proliferation
[20] = HT-29, Table IV, read-out: IC50 for inhibition of human colon cancer cell proliferation

## Nc1ccc(C(=O)NCCC(=O)O)cc1 [4-ABA, 4-aminobenzoyl-β-alanine]
[1]
  inhibition of colon cancer cell growth (in words): inactive
[2]; 10 mM
  Cell No. on Day 10: 768700
[2]; [17]
  activity at 10000 µM: 108%
[3]; HT-29, 10 mM
  Cell No. on Day 10: 1316625
[3]; [18]
  activity at 10000 µM: 100%
[4]
  absorption: poorly absorbed

## Nc1ccc(O)c(C(=O)O)c1 [5-ASA, 5-aminosalicylic acid]
[5]; 0.1-1.0 mM
  increase in cell number: approximately 20%
[5]; [19]
  IC50: 11.6 mM
[5]; text (FIG. 5), read-out: IC50
  IC50: 11.5 mM
[6]; Na hypochlorite 0 mM
  inhibition at 10000 µM: 0%
[6]; Na hypochlorite 0.01 mM
  inhibition at 10000 µM: 2%
[6]; Na hypochlorite 0.05 mM
  inhibition at 10000 µM: 4%
[6]; Na hypochlorite 0.1 mM
  inhibition at 10000 µM: 8%
[6]; Na hypochlorite 0.2 mM
  inhibition at 10000 µM: 26%
[6]; Na hypochlorite 0.3 mM
  inhibition at 10000 µM: 42%
[6]; Na hypochlorite 0.4 mM
  inhibition at 10000 µM: 48%
[6]; unoxidized 5ASA
  Basal inhibitory activity: 45%
[7]
  reduction of rectal mucosal reactive oxygen metabolite production: over 90%
[8]; HT-29, 0.1-4 mM
  increase in cell number: approximately 20%
[8]; [20]
  IC50: 11.9 mM
[8]; HT-29, text (FIG. 5), read-out: IC50
  IC50: 11.8 mM
[9]
  IC50: 10.5 mM
[2]; 10 mM
  Cell No. on Day 10: 8675
[2]; Homo sapiens, 10 mM, read-out: growth inhibition
  inhibition at 10000 µM: 85%
[2]; [17]
  activity at 10000 µM: 1.22%
[10]; 10 mM dissolved in culture media 4 days prior, read-out: growth response relative to control cultures
  activity at 10000 µM: 22.9%
[10]; freshly dissolved 10 mM, 4 days, read-out: growth response relative to control cells
  activity at 10000 µM: 82.7%
[3]; HT-29, 10 mM
  Cell No. on Day 10: 512825
[3]; [18]
  activity at 10000 µM: 39%
[3]; Homo sapiens, HT-29, 10 mM, read-out: growth inhibition
  inhibition at 10000 µM: 82%
[11]
  IC50: 10.2 mM
[4]; single dose of balsalazide, 96-hour period
  conversion to N-acetyl-5-ASA and excretion in urine: majority
[12]
  inhibition of nitrosamine formation: inhibits nitrosamine formation

## O=C(O)c1cc([N+](=O)[O-])ccc1O [5-NSA, 5-nitro-salicylate]
[5]; [19]
  IC50: 2.69 mM
[8]; [20]
  IC50: 1.63 mM
[9]
  IC50: 1.46 mM
[11]
  IC50: 1.38 mM

## CC(=O)Oc1ccccc1C(=O)O [Ac-salicylic acid, acetyl salicylic acid]
[1]
  inhibition of colon cancer cell growth (in words): potently inhibitory
[13]; retrospective study (Kune et al.)
  risk of colon cancer development: halving
[13]; retrospective study (Paganini-Hill et al.)
  increased risk of colon cancer: 50%
[2]; 10 mM
  Cell No. on Day 10: 8300
[2]; Homo sapiens, read-out: % of Control Cells
  activity at 10000 µM: 2.24%
[3]; HT-29, 10 mM
  Cell No. on Day 10: 14625
[3]; Homo sapiens, HT-29, 240 h
  activity at 10000 µM: 1.11%

## O=C(O)c1cc(O)ccc1O [Gentisate, gentisic acid]
[5]; [19]
  IC50: 5.85 mM
[1]
  inhibition of colon cancer cell growth (in words): inhibited cell growth
[8]; [20]
  IC50: 5.05 mM
[9]
  IC50: 2.98 mM
[11]
  IC50: 4.42 mM

## CC(=O)Nc1ccc(C(=O)NCCC(=O)O)cc1 [N-acetyl metabolite of 4-ABA]
[4]
  absorption: poorly absorbed

## CC(=O)Nc1ccc(O)c(C(=O)O)c1 [N-acetyl-5-ASA]
[4]; in vivo
  activity of N-acetyl metabolite of 5-ASA: inactive

## [Na+].[O-]Cl [NaOCl, sodium hypochlorite]
[6]; 0.4 mM NaOCl
  Background inhibitory activity: less than 2%

## COc1ccc2c(c1)c(CC(=O)O)c(C)n2C(=O)c1ccc(Cl)cc1 [indomethacin]
[14]
  absorption / activation: absorbed primarily from the upper GI tract
[15]
  effect on polyps: no influence on polyp regression

## CC1=C(CC(=O)O)c2cc(F)ccc2/C1=C\c1ccc([S+](C)[O-])cc1 (stereo not shown) [sulindac]
[14]
  absorption / activation: converted to its active metabolite, sulindac sulfide, by the colonic bacteria
[15]; nine familial polyposis patients
  time to regression of polyps: less than 4 months
[15]
  effect on polyps: regression of polyps; also recorded: polyp growth resumed following sulindac withdrawal
[16]
  effect on tumor incidence, dimethylhydrazine-induced: reduce tumor incidence only when present during carcinogen administration
